Data on eight compounds can be found in ChEMBL document CHEMBL1201862, “PubChem BioAssay data set” (2004).

Test systems include KM12; SK-MEL-2; NCI/ADR-RES; MDA-MB-435; CCRF-CEM; Hs-578T; MOLT-4; SK-OV-3; SK-MEL-5; K562; DU-145; LOX IMVI; PC-3; BT-549; TK-10; COLO 205; UACC-257; RPMI-8226; OVCAR-3; A498.
Common to all, as to assay: inhibition of tumour cell growth, NCI panel, 48 h

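Method: 48-hour compound exposure of cells in 96-well plates, five concentrations, linear interpolation of endpoints. Abbreviation: GI50, concentration required for 50% inhibition of growth.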 Activity calls are given as the source filed them. No stated cut-off is given here; in the data, active = GI50 up to about 1.1 µM and inactive = higher.

For the compound `Cc1nn(C(=O)c2ccc(Cl)cc2)c2c1C(c1ccc(O)cc1)SC(=N)N2` (stereo not drawn), the GI50 in the assay with KM12, with SK-MEL-2, in the assay on NCI/ADR-RES, with MDA-MB-435, in the assay on CCRF-CEM and in the assay with Hs-578T was > 10 µM (inactive) each time. Also, the GI50 in the assay on MOLT-4, in the assay on SK-OV-3, in the assay with SK-MEL-5, in the assay with K562, with DU-145 and with LOX IMVI was > 10 µM (inactive) throughout. In addition, the GI50 with PC-3, in the assay on BT-549, in the assay with TK-10, in the assay with COLO 205, in the assay on UACC-257 and in the assay with RPMI-8226 was > 10 µM (inactive) each time. Also, the GI50 in the assay with OVCAR-3 is > 10 µM (inactive).
On to `Nc1ccc(S(=O)(=O)Nc2nc3ccccc3nc2N2CCCCC2)cc1`, for which the GI50 with KM12 was 70.1 µM (inactive); with SK-MEL-2 it was 88.1 µM (inactive); in the assay with NCI/ADR-RES, 46.3 µM (inactive); in the assay on MDA-MB-435 it was > 100 µM (inactive); in the assay with CCRF-CEM, 48.5 µM (inactive); with Hs-578T, > 100 µM (inactive). For the same compound, the GI50 in the assay on MOLT-4 is 27.5 µM (inactive); in the assay on SK-OV-3, > 100 µM (inactive); with SK-MEL-5 it was 91 µM (inactive); in the assay with K562, > 100 µM (inactive); in the assay on DU-145, > 100 µM (inactive); in the assay with LOX IMVI, > 100 µM (inactive). Besides, the GI50 with PC-3 is 59.3 µM (inactive); in the assay with BT-549, 23.8 µM (inactive); in the assay with TK-10, 37.6 µM (inactive); in the assay with COLO 205 it was 64.9 µM (inactive); in the assay on UACC-257, > 100 µM (inactive); with RPMI-8226 it was 58.9 µM (inactive). The GI50 in the assay with OVCAR-3 was > 100 µM (inactive).
`CC1OC(OC2CC(O)(C(=O)CO)Cc3c(O)c4c(c(O)c32)C(=O)c2ccccc2C4=O)CC(N)C1O` (stereo not drawn): the GI50 was 0.0168 µM (active) in the assay on KM12; 0.0387 µM (active) in the assay with SK-MEL-2; 0.156 µM (active) in the assay with MDA-MB-435; < 0.01 µM (active) in the assay with CCRF-CEM; 0.0206 µM (active) with Hs-578T; < 0.01 µM (active) in the assay on MOLT-4. Besides, the GI50 in the assay on SK-OV-3 was 0.0109 µM (active); in the assay with SK-MEL-5, < 0.0105 µM (active); in the assay with K562, < 0.0118 µM (active); with DU-145, 0.0101 µM (active); in the assay on LOX IMVI it was < 0.01 µM (active); with PC-3 it was 0.0301 µM (active). Moreover, the GI50 with BT-549 was 0.171 µM (active); in the assay with TK-10, 0.0559 µM (active); with COLO 205, < 0.017 µM (active); with UACC-257, 0.054 µM (active); in the assay with A498 it was < 0.01 µM (active); with RPMI-8226, < 0.01 µM (active). In addition, the GI50 in the assay with OVCAR-3 is 0.106 µM (active).
As for `O=c1ccc2c(Cl)sc(Cl)c2[nH]1`, the GI50 in the assay with KM12 was > 100 µM (inactive); in the assay on SK-MEL-2 it was > 100 µM (inactive); in the assay with NCI/ADR-RES, > 100 µM (inactive); with MDA-MB-435, > 100 µM (inactive); in the assay on CCRF-CEM, > 100 µM (inactive); in the assay with Hs-578T, 35.2 µM (inactive). For the same compound, the GI50 in the assay with MOLT-4, in the assay with SK-OV-3, in the assay on K562, with DU-145, in the assay with LOX IMVI and with PC-3 was > 100 µM (inactive) each time. Further, the GI50 in the assay with BT-549, in the assay on TK-10, with UACC-257, with RPMI-8226 and with OVCAR-3 was > 100 µM (inactive) throughout.
Take `CN(C(=O)C12C3C4C1C1C2C3C41C(=O)O)C(C)(C)C` (stereo not drawn): the GI50 in the assay on KM12, with SK-MEL-2, in the assay on NCI/ADR-RES, in the assay with MDA-MB-435, with CCRF-CEM and in the assay on Hs-578T was > 100 µM (inactive) each time. For the same compound, the GI50 in the assay with MOLT-4, with SK-MEL-5, in the assay with K562, in the assay with DU-145, with LOX IMVI and with PC-3 was > 100 µM (inactive) in each case. Further, the GI50 in the assay on BT-549, in the assay with TK-10, in the assay on COLO 205, in the assay with UACC-257, in the assay with A498 and in the assay on OVCAR-3 was > 100 µM (inactive) in each case.
On to `O=C1c2ccsc2-c2cccc3cccc1c23.O=C1c2sccc2-c2cccc3cccc1c23`, for which the GI50 in the assay with KM12 is 3.52 µM (inactive); in the assay with SK-MEL-2, 14.8 µM (inactive); with NCI/ADR-RES, 3.56 µM (inactive); with MDA-MB-435 it was 17.1 µM (inactive); with CCRF-CEM it was 0.692 µM (active); in the assay on Hs-578T it was 0.366 µM (active). Also, the GI50 was 1.29 µM (inactive) in the assay with MOLT-4; 18.5 µM (inactive) in the assay on SK-OV-3; 10 µM (inactive) in the assay with K562; 0.65 µM (active) with DU-145; 3.72 µM (inactive) in the assay on LOX IMVI; 4.05 µM (inactive) in the assay on PC-3. The GI50 in the assay on BT-549 is 1.94 µM (inactive); in the assay on TK-10, 2.55 µM (inactive); in the assay with COLO 205, 2.33 µM (inactive); with UACC-257, 9.2 µM (inactive); in the assay on RPMI-8226, 0.0359 µM (active); in the assay on OVCAR-3, 10.5 µM (inactive).
With `CC(C)(C)NC1=NC(C(F)(F)F)(C(F)(F)F)NC(=O)N1`, the GI50 in the assay with KM12 is 68.4 µM (inactive); in the assay with SK-MEL-2, 65.2 µM (inactive); with NCI/ADR-RES, 61 µM (inactive); with MDA-MB-435 it was 37.1 µM (inactive); in the assay on CCRF-CEM it was 31.2 µM (inactive); in the assay with Hs-578T it was 58.2 µM (inactive). Besides, the GI50 was 30.2 µM (inactive) in the assay on MOLT-4; > 100 µM (inactive) in the assay with SK-OV-3; 24.8 µM (inactive) with SK-MEL-5; 30.7 µM (inactive) in the assay with K562; > 100 µM (inactive) in the assay with DU-145; 53 µM (inactive) with LOX IMVI. The GI50 with PC-3 was 34.8 µM (inactive); in the assay on BT-549, 16.9 µM (inactive); with TK-10 it was 67.8 µM (inactive); in the assay with COLO 205, > 10 µM (inactive); in the assay with UACC-257, 54.2 µM (inactive); with RPMI-8226, 36.9 µM (inactive). The GI50 in the assay with OVCAR-3 is 77.4 µM (inactive).
For `CC(C)OC(=O)Nc1cccc(Cl)c1` [CHLORPROPHAM], the GI50 is 70.1 µM (inactive) in the assay on KM12; > 100 µM (inactive) in the assay with SK-MEL-2; 91.4 µM (inactive) in the assay with NCI/ADR-RES; > 100 µM (inactive) with MDA-MB-435; > 100 µM (inactive) in the assay with CCRF-CEM; > 100 µM (inactive) in the assay with Hs-578T. Moreover, the GI50 is > 100 µM (inactive) in the assay on MOLT-4; > 100 µM (inactive) in the assay on SK-OV-3; > 100 µM (inactive) with SK-MEL-5; 89.9 µM (inactive) with K562; > 100 µM (inactive) in the assay on DU-145; > 100 µM (inactive) in the assay on LOX IMVI. For the same compound, the GI50 is 94.4 µM (inactive) with PC-3; 87.7 µM (inactive) with BT-549; > 100 µM (inactive) in the assay with TK-10; > 100 µM (inactive) in the assay on COLO 205; > 100 µM (inactive) in the assay with UACC-257; > 100 µM (inactive) in the assay on RPMI-8226. Further, the GI50 in the assay with OVCAR-3 was > 100 µM (inactive).
